Data as given in US7186784B2, “Phosphorus-containing carboxylic acid derivatives process for preparations thereof and flame retardant” (NOF Corporation, priority 2001, dated 2007).

Experiments:
[1] = Storage stability test in blend with epoxy resin YDPN 638; settings: 1:1 by weight with epoxy resin YDPN 638, room temperature; for Stability Test: 30 days, viscosity increase observed visually
From the text: Then a visual observation was made about an increase in the viscosity thereof.

[2] = Dissolution on preparing the resin composition; assay type: physicochemical; settings: 20.0 parts M-Acid with Epicote 828, CIC acid derivative and Nofcure-LC-1, mixed in a vial
From the text: An attempt was made to prepare a resin composition by mixing and agitating in a vial, 5.06 parts by weight of Epicote 828, 4.94 parts by weight of a derivative from CIC acid by n-propylvinyl ether, 20.0 parts by weight of unmodified M-Acid and 0.21 parts by weight of Nofcure-LC-1. However, the M-Acid was not dissolved, thereby forming non-homogeneous and opaque suspension.

Structure (SMILES)	Stability Test: time before hardening (figure in parentheses) [1]	Stability Test [1]	dissolution in resin composition [2]
O=C(O)CC(CP(=O)(Oc1ccccc1)Oc1ccccc1)C(=O)O (stereo not shown) [Ref. Example. 7]	5 min	Hardened	
O=C(O)CC(CP1(=O)Oc2ccccc2-c2ccccc21)C(=O)O (stereo not shown) [M-Acid]			not dissolved
CCOP(=O)(CC(CC(=O)O)C(=O)O)OCC (stereo not shown) [DEHP-ItaA]	5 min	Hardened	
O=C(O)CCC(CC(=O)O)(C(=O)O)P(=O)(O)O (stereo not shown) [PBTC, 2-phosphonobutane-1,2,4-tricarboxylic acid]	15 min	Hardened	
